Like-named read-outs stand apart in the source and are kept apart here.
What was measured:
[1] = tested on: Enterococcus faecalis NR-31970; experiment: CFU test of synergy between photoinactivation of catalase and ROS-generating antibiotics (catalase-negative control); format: cell-based; settings: ns-410 nm plus tobramycin 2 μg/ml, 4-hour incubation; catalase-negative strain
Procedure: (§1) Then prior to any treatments, the above solution was incubated with antibiotics (10 μg/ml) for 1 hour. For each bacterial strain, four groups were tested: untreated one, ns-410 nm-treated group, antibiotic (2 μg/ml)-treated group, ns-410 nm plus antibiotic (2 μg/ml)-treated group. Dose for ns-410 nm exposure was 15 J/cm2.

E. coli BW25113 [2] = experiment: CFU test of synergy between photoinactivation of catalase and ROS-generating antibiotics; format: cell-based, Escherichia coli; settings: ns-410 nm (15 J/cm2) plus tobramycin 2 μg/ml, 4-hour incubation
Procedure: as §1

MRSA USA300 = experiment: Spread agar plates, photoinactivation of catalase with silver cation; format: cell-based, methicillin-resistant Staphylococcus aureus
E. coli BW25113 [3] = experiment: CFU, photoinactivation of catalase with silver cation; format: cell-based, Escherichia coli; settings: 30 and 60 minutes
clinical fungal isolates = settings: 410 nm plus H2O2; more than twenty different clinical fungal isolates
Procedure: (§2) PrestoBlue viability assay: First log-phase fungal pathogens were prepared by diluting overnight-cultured fungal pathogens into fresh YPD broth at a ratio of 1:50 and cultured for another 2-3 hours at 30 C with the shaking speed of 200 rpm. After that, the fungal concentration was adjusted to be around 1×10^8 cells/ml by centrifuging or further dilution with PBS. 10 μl of the above fungal solution was exposed to 410 nm for 5 min (150 mW/cm^2). After that, the exposed sample was collected into 990 μl of sterile PBS, then supplemented with treatment agents. Aliquots were made from the above sample into a 96-well plate, with each well containing 100 μl. Then 100 μl sterile YPD broth and 23 μl of PrestoBlue were added into the same well. Fluorescence signal at 590 nm from each well was recorded in a time-course (up to 18 hours with the interval of 30 min) manner at an excitation of 560 nm. For each strain, in order to know the exact number of fungal pathogens in each well, the corresponding fluorescence signals were recorded from fungal pathogens with known numbers, however no external treatments.

CASC5314 = settings: 410 nm plus low-concentration H2O2; log-phase or stationary-phase
Procedure: as §2

[4] = tested on: stationary-phase Pseudomonas aeruginosa
Text: (§3) CFU experiments to test the potential synergy between photoinactivation of catalase and H2O2: Overnight-cultured bacteria was centrifuged, the supernatant was discarded, and the pellet was resuspended with the same amount of PBS. The laser source used in the study is nanosecond (ns) pulsed OPO laser purchased from OPOTEK Inc, model number as Opolette HE355 LD, having the following key specifications: wavelength range, 410-2400 nm; pulse repetition rate, 20 Hz; maximum pulse energy at 460 nm, 8 mJ; pulse duration, 5 nanosecond; spectral linewidth, 4-6 cm-1; and pulse-to-pulse stability, <5%. For each bacterial strain there were four groups: untreated one, ns-410 nm-treated group, H2O2 (22 or 44 mM)-treated group, ns-410 nm plus H2O2 (22 or 44 mM)-treated group. Dose for ns-410 nm exposure was 15 J/cm^2. H2O2 was incubated with bacteria for 30 min at 37° C. with the shaking speed of 200 rpm. After incubation, bacterial burden from each group was serial diluted, inoculated onto TSA plates, then counted by enumeration of these plates.

[5] = tested on: stationary-phase MRSA USA300
Text: as §3

Salmonella enterica = settings: ns-410 nm combined with H2O2 22 mM
Text: as §3

Candida albicans SC5314 = tested on: Candida albicans SC5314
Procedure: CFU test to quantify the treatment efficacy: Quantification of antifungal treatment schemes were achieved as following: overnight cultured fungal specimen was washed by sterile PBS. And log-phase fungal pathogens were prepared by dilution into fresh YPD broth at a ratio of 1:50 and cultured for another 2-3 hours at 30° C. with the shaking speed of 200 rpm. After that, the fungal concentration was adjusted to be around 1×10^8 cells/ml by centrifuging or further dilution with PBS. 10 μl of the above fungal solution was exposed to 410 nm for 5 min (150 mW/cm^2). After that, the exposed sample was collected into 990 μl of sterile PBS, then supplemented with treatment agents. Later, CFU of fungal cells was enumerated by serial dilution and cultured in YPD agar plates for 48 hours.

C. auris strains = experiment: PrestoBlue viability assay, amp B; format: cell-based, Candida auris
[6] = H2O2 22 mM after photoinactivation of catalase (15 J/cm2)

For `NC[C@H]1O[C@H](O[C@H]2[C@H](O)[C@@H](O[C@H]3O[C@H](CO)[C@@H](O)[C@H](N)[C@H]3O)[C@H](N)C[C@@H]2N)[C@H](N)C[C@@H]1O` [tobramycin, Tobramycin], the “enhanced killing effect in combination-treated group” value [1] was “did not produce any enhanced killing effect” and the “enhancement of killing in combination-treated group” value (E. coli BW25113 [2]) was “More than 100 times”.

In the case of `[Ag+]` [silver cation], the MRSA eliminated (MRSA USA300; ns-410 nm combined with 10 μM silver cation, one hour after treatment) is reported as “about 90%”, the antimicrobial effect (MRSA USA300; silver cation alone) is reported as “does not exert any significant antimicrobial effect” and the “killing effect (CFU ml-1)” value (E. coli BW25113 [3]; 0.5 μM Ag+ alone) is reported as “doesn't exert any significant killing effect”. The “reduction of bacterial burden” value (E. coli BW25113 [3]; CW-410 (22 J/cm^2) combined with 0.5 μM Ag+) was “didn't significantly reduce bacterial burden” and the “reduction of bacterial burden” value (E. coli BW25113 [3]; ns-410 (22 J/cm^2) in combination with 0.5 μM Ag+) was “around 99%”.

In the case of `OO` [H2O2, hydrogen peroxide], the “killing by synergistic therapy (PrestoBlue)” value (clinical fungal isolates) is reported as “significant killing was consistently found”, the “effect of photoinactivation of catalase on killing by H2O2 (PrestoBlue fluorescence)” value (CASC5314) is reported as “always boosts the killing effect” and the “killing efficacy, ns-410 nm plus H2O2 compared to CW-410 nm plus H2O2” value ([4]; FIG. 6) is reported as “significantly more effective”. The “reduction of bacterial burden” value [4, 6] was ≥ 3 log 10 reduction, the eradication ([4]; H2O2 22 mM combined with 410 nm exposure (15 J/cm2)) was “total eradication” and the “antimicrobial effect (CFU ml-1)” value ([4]; H2O2 alone, 22 mM) was “didn't exert any significant antimicrobial effect”. For the same compound, the “killing efficacy, ns-410 nm plus H2O2 compared to CW-410 nm plus H2O2” value ([5]; FIG. 6) was “significantly more effective”, the “reduction of bacterial burden” value [5, 6] was ≥ 3 log 10 reduction and the “reduction of bacterial burden” value ([5]; ns-410 nm (15 J/cm2) in combination with H2O2 22 mM) was “approximately four”. The “reduction of bacterial burden” value ([5]; ns-430 nm combined with H2O2 22 mM) was “around 99%”, the “reduction of bacterial burden” value ([5]; ns-450 or ns-460 nm combined with H2O2 22 mM) was “around 90%” and the “reduction of bacterial burden” value ([5]; ns-470 nm combined with H2O2 22 mM) was “around 50%”. The antimicrobial effect ([5]; ns-480 nm combined with H2O2 22 mM) was “barely exerts an antimicrobial effect”, the enhanced killing effect (Salmonella enterica) was “around five” and the “enhancement of the function of H2O2 after photoinactivation of catalase” value (Candida albicans SC5314; 410 nm exposure then H2O2, FIG. 11) was “more than five”. The “killing effect (CFU ml-1)” value (Candida albicans SC5314; H2O2 alone, 44 mM (0.15%), 1.5-hour incubation, stationary-phase) was “doesn't exert significant killing effect”, the “eradication (time-killing, CFU)” value (Candida albicans SC5314; low-concentration H2O2 after 410 nm exposure, FIG. 11) was “eradication was achieved” and the eradication (Candida albicans SC5314; ns-410, ns-420 or ns-430 combined with H2O2 44 mM) was “total eradication”. For the same compound, the “reduction of fungal burden” value (Candida albicans SC5314; ns-450 or ns-480 nm combined with H2O2 44 mM) was “reduced a similar amount of fungal burden as H2O2-alone” and the reduction of burden (Candida albicans SC5314; ns-light (24 J/cm^2) in combination with H2O2 44 mM) was “around four”.

For `C[C@@H]1[C@H](O)[C@@H](C)/C=C/C=C/C=C/C=C/C=C/C=C/C=C/[C@H](O[C@@H]2O[C@H](C)[C@@H](O)[C@H](N)[C@@H]2O)C[C@@H]2O[C@](O)(C[C@@H](O)C[C@@H](O)[C@H](O)CC[C@@H](O)C[C@@H](O)CC(=O)O[C@H]1C)C[C@H](O)[C@H]2C(=O)O` [amp B, amphotericin B], the “eradication (PrestoBlue fluorescence)” value (C. auris strains; 410 nm plus amp B, same result with 410 nm without amp B, ten strains) was “total eradication” and the “susceptibility (PrestoBlue fluorescence)” value (C. auris strains; amp B alone, without photoinactivation of catalase) was “some C. auris strains were resilient”.

— patent US12064641B2, “Bactericidal methods and compositions” (Pulsethera, Inc., priority 2019, dated 2024)
